The test concerns CD2F1 mice, L1210 leukemia ip, survival T/C. In words: NCI In Vivo Anticancer Drug Screen. Data for tumor model L1210 Leukemia (intraperitoneal) in CD2F1 (CDF1) mice. As to conditions: higher = longer survival. In a few lines:
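Transplantable tumor in mice; compound-treated vs vehicle-treated groups. Read-out = treated/control ratio of the measured endpoint.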

Setting [1] is: endpoint: mean survival time, dose: 100.0 mg/kg/injection, schedule: Q01DX009 (ip), vehicle: saline with Tween-80.
Setting [2] is: endpoint: mean survival time, dose: 100.0 mg/kg/injection, schedule: Q04DX003 (ip), vehicle: saline with Tween-80.
[3] abbreviates: endpoint: mean survival time, dose: 200.0 mg/kg/injection, schedule: Q01DX009 (ip), vehicle: saline with Tween-80.
The mark [4] stands for this setting: endpoint: mean survival time, dose: 200.0 mg/kg/injection, schedule: Q04DX003 (ip), vehicle: saline with Tween-80.
Setting [5] is: endpoint: mean survival time, dose: 400.0 mg/kg/injection, schedule: Q01DX009 (ip), vehicle: saline with Tween-80.
Setting [6] is: endpoint: mean survival time, dose: 400.0 mg/kg/injection, schedule: Q04DX003 (ip), vehicle: saline with Tween-80.
Setting [7] is: endpoint: mean survival time, dose: 100.0 mg/kg/injection, schedule: Q04DX002 (ip), vehicle: saline with Tween-80.
[8] abbreviates: endpoint: mean survival time, dose: 50.0 mg/kg/injection, schedule: Q01DX009 (ip), vehicle: saline with Tween-80.
[9] abbreviates: endpoint: mean survival time, dose: 100.0 mg/kg/injection, schedule: Q04DX003 (ip), vehicle: saline.
[10] abbreviates: endpoint: mean survival time, dose: 200.0 mg/kg/injection, schedule: Q04DX003 (ip), vehicle: saline.

SMILES strings stand for the structures. Values joined by “and” are separate entries in the source; they are usually repeats but may differ in a detail not shown here. Identical values can stand only once. Toxic doses and inconclusive results are not listed.

As to `CCOc1nc(OCC)nc(-c2cccn2-c2ccccc2)n1`, the T/C by setting is: under setting [1], 95 % of control; under setting [2], 106 % of control; under setting [3], 87 % of control; under setting [4], 100 % of control; under setting [5], 93 % of control; under setting [6], 98 % of control.

As to `NCCc1nc[nH]c1[N+](=O)[O-]`, the T/C runs as follows: (endpoint: mean survival time, dose: 12.5 mg/kg/injection, schedule: Q01DX005 (ip), vehicle: water) 106 % of control; (endpoint: mean survival time, dose: 25.0 mg/kg/injection, schedule: Q01DX005 (ip), vehicle: water) 97 % of control; (endpoint: mean survival time, dose: 50.0 mg/kg/injection, schedule: Q01DX005 (ip), vehicle: water) 97 % of control; (endpoint: mean survival time, dose: 100.0 mg/kg/injection, schedule: Q01DX005 (ip), vehicle: water) 103 % of control; (endpoint: mean survival time, dose: 200.0 mg/kg/injection, schedule: Q01DX005 (ip), vehicle: water) 92 % of control.

Consider `CC(=O)Nc1ccc([N+](=O)[O-])c(C(F)(F)F)c1`, for which the T/C reads like this: under setting [2], 98 % of control; under setting [4], 103 % of control.

Turning to `CC(=O)NC1(C(=O)O)SCCCS1`, the T/C is, setting by setting: (endpoint: mean survival time, dose: 50.0 mg/kg/injection, schedule: Q04DX002 (ip), vehicle: saline with Tween-80) 92 % of control; under setting [7], 100 % of control; (endpoint: mean survival time, dose: 400.0 mg/kg/injection, schedule: Q04DX002 (ip), vehicle: saline with Tween-80) 89 % of control.

As to `CC(=O)OC1COC(n2cnc(C#N)c2C#N)C(OC(C)=O)C1OC(C)=O` (configuration not stated), the T/C (endpoint: mean survival time, dose: 12.5 mg/kg/injection, schedule: Q01DX005 (ip), vehicle: distilled water + Tween-80) was 101 % of control and 98 % of control; the T/C (endpoint: mean survival time, dose: 25.0 mg/kg/injection, schedule: Q01DX005 (ip), vehicle: distilled water + Tween-80) was 95 % of control and 103 % of control; the T/C (endpoint: mean survival time, dose: 50.0 mg/kg/injection, schedule: Q01DX005 (ip), vehicle: distilled water + Tween-80) is 93 % of control and 101 % of control; the T/C (endpoint: mean survival time, dose: 100.0 mg/kg/injection, schedule: Q01DX005 (ip), vehicle: distilled water + Tween-80) is 97 % of control; the T/C (endpoint: mean survival time, dose: 200.0 mg/kg/injection, schedule: Q01DX005 (ip), vehicle: distilled water + Tween-80) was 93 % of control and 104 % of control.

Turning to `COc1ccc2c(c1)CCC1=C2CCC2(C)C(=O)NC(=O)N12` (configuration not stated), the T/C was 98 % of control under setting [2], 96 % of control under setting [4] and 98 % of control under setting [6].

Regarding `O=[N+]([O-])O.[La]`, the T/C was 90 % of control under setting [8]; 97 % of control under setting [1]; 92 % of control under setting [2]; 97 % of control under setting [9]; 92 % of control under setting [3]; 93 % of control under setting [4]. Moreover, the T/C under setting [10] is 98 % of control.

Turning to `C1=NOC2c3ccc4ccccc4c3CCC12` (configuration not stated), the T/C (endpoint: mean survival time, dose: 100.0 mg/kg/injection, schedule: Q04DX003 (ip), vehicle: Klucel (hydroxypropylcellulose) (HPC)) was 100 % of control; the T/C (endpoint: mean survival time, dose: 200.0 mg/kg/injection, schedule: Q04DX003 (ip), vehicle: Klucel (hydroxypropylcellulose) (HPC)) was 101 % of control; the T/C (endpoint: mean survival time, dose: 400.0 mg/kg/injection, schedule: Q04DX003 (ip), vehicle: Klucel (hydroxypropylcellulose) (HPC)) is 107 % of control.

As to `O=C(Nc1ccc(Nc2ccc(NC(=O)c3ccccc3)c3c2C(=O)c2ccccc2C3=O)c2c1C(=O)c1ccccc1C2=O)c1ccccc1`, the T/C under setting [1] was 95 % of control; the T/C under setting [2] is 108 % of control; the T/C under setting [3] is 95 % of control; the T/C under setting [4] was 100 % of control; the T/C under setting [5] is 100 % of control; the T/C under setting [6] is 102 % of control.

`Cc1ccc([NH-])c([NH-])c1.[Cl][Pt+2][Cl]`: the T/C reads like this: (endpoint: mean survival time, dose: 2.5 mg/kg/injection, schedule: Q01DX009 (ip), vehicle: saline with Tween-80) 151 % of control; (endpoint: mean survival time, dose: 5.0 mg/kg/injection, schedule: Q01DX009 (ip), vehicle: saline with Tween-80) 180 % of control; (endpoint: mean survival time, dose: 20.0 mg/kg/injection, schedule: Q01DX009 (ip), vehicle: saline with Tween-80) 94 % of control.

With `COc1ccc(C(=O)C/C(=N\N(C(=O)c2ccc(OC)cc2)c2ccccc2)c2ccc(OC)cc2)cc1`, the T/C by setting is: under setting [2], 95 % of control; under setting [4], 97 % of control.

For `O=c1nc2n(cc1F)C1OC(CCl)C(O)C1O2` (configuration not stated), the T/C is 101 % of control (endpoint: median survival time, dose: 12.5 mg/kg/injection, schedule: Q01DX005 (ip), vehicle: saline with Tween-80); 104 % of control (endpoint: median survival time, dose: 25.0 mg/kg/injection, schedule: Q01DX005 (ip), vehicle: saline with Tween-80); 97 % of control (endpoint: median survival time, dose: 50.0 mg/kg/injection, schedule: Q01DX005 (ip), vehicle: saline with Tween-80); 101 % of control (endpoint: median survival time, dose: 100.0 mg/kg/injection, schedule: Q01DX005 (ip), vehicle: saline with Tween-80); 105 % of control (endpoint: median survival time, dose: 200.0 mg/kg/injection, schedule: Q01DX005 (ip), vehicle: saline with Tween-80).

Regarding `O=C1CCC2(CCC(=O)O2)O1`, the T/C is 94 % of control under setting [9]; 100 % of control under setting [10]; 93 % of control (endpoint: mean survival time, dose: 400.0 mg/kg/injection, schedule: Q04DX003 (ip), vehicle: saline).

Turning to `CN(C)CCOc1ccccn1`, the T/C is, setting by setting: under setting [1], 93 % of control; under setting [2], 92 % of control; under setting [3], 95 % of control; under setting [4], 87 % of control; under setting [5], 87 % of control; under setting [6], 87 % of control.

For `CCCn1cnc2c(=S)nc[nH]c21`, the T/C is 119 % of control (endpoint: mean survival time, dose: 150.0 mg/kg/injection, schedule: Q01DX Z (ip), vehicle: carboxymethylcellulose (CMC)); 150 % of control (endpoint: mean survival time, dose: 150.0 mg/kg/injection, schedule: Q04DX003 (ip), vehicle: saline with Tween-80); 95 % of control (endpoint: mean survival time, dose: 200.0 mg/kg/injection, schedule: Q01DX Z (ip), vehicle: carboxymethylcellulose (CMC)); 161 % of control (endpoint: mean survival time, dose: 300.0 mg/kg/injection, schedule: Q04DX003 (ip), vehicle: saline with Tween-80); 111 % of control (endpoint: mean survival time, dose: 600.0 mg/kg/injection, schedule: Q04DX003 (ip), vehicle: saline with Tween-80).

As to `COC(=O)C(c1ccccc1)C(c1ccccc1)c1ccccc1` (configuration not stated), the T/C was 95 % of control under setting [7] and 87 % of control (endpoint: mean survival time, dose: 200.0 mg/kg/injection, schedule: Q04DX002 (ip), vehicle: saline with Tween-80).

In the case of `Cc1ccnc(N)c1.[Cl-].[Cl-].[Cl-].[Cl-].[Pt+2]`, the T/C by setting is: (endpoint: mean survival time, dose: 25.0 mg/kg/injection, schedule: Q04DX003 (ip), vehicle: saline with Tween-80) 106 % of control; (endpoint: mean survival time, dose: 50.0 mg/kg/injection, schedule: Q04DX003 (ip), vehicle: saline with Tween-80) 101 % of control.

Consider `O=C(COc1ccccc1)N/N=C/c1ccccc1O`, for which the T/C under setting [1] is 92 % of control.

On to `Cc1ccccc1C1(O)CCCCC1`, for which the T/C was 114 % of control (endpoint: mean survival time, dose: 25.0 mg/kg/injection, schedule: Q01DX009 (ip), vehicle: saline with Tween-80); 98 % of control and 108 % of control under setting [8]; 90 % of control under setting [1]; 93 % of control under setting [2]; 90 % of control under setting [3]; 94 % of control under setting [4].

With `C[S+](C)CCC(N)C(=O)O` (configuration not stated) (tested in a mixture with another compound), the T/C was 111 % of control (endpoint: median survival time, dose: 3.13 mg/kg/injection, schedule: Q04DX002 (ip), vehicle: saline); 111 % of control (endpoint: median survival time, dose: 6.25 mg/kg/injection, schedule: Q04DX002 (ip), vehicle: saline); 111 % of control (endpoint: median survival time, dose: 12.5 mg/kg/injection, schedule: Q04DX002 (ip), vehicle: saline); 111 % of control and 108 % of control (endpoint: median survival time, dose: 25.0 mg/kg/injection, schedule: Q04DX002 (ip), vehicle: saline); 111 % of control and 94 % of control (endpoint: median survival time, dose: 50.0 mg/kg/injection, schedule: Q04DX002 (ip), vehicle: saline); 117 % of control and 100 % of control (endpoint: median survival time, dose: 100.0 mg/kg/injection, schedule: Q04DX002 (ip), vehicle: saline). Moreover, for the setting “endpoint: median survival time, dose: 400.0 mg/kg/injection, schedule: Q04DX002 (ip), vehicle: saline”, the T/C is 100 % of control.

The values above are taken from PubChem BioAssay AID256 (DTP/NCI, 2004).
